This is an account of results in patent US10513694B2, “Thienopyrrole compounds and uses thereof” (PROMEGA CORPORATION, priority 2015, dated 2019).

This experiment deals with NANOLUC® enzyme (Oplophorus gracilirostris, UniProt Q9GV45, A31E/A60N/A81I/F95D/I117V/K70R/L54V/L99Q/M102K/N193R/P142E/Q151K/Q38R/Q45L/V71I/Y165I). The experiment can be described thus: Inhibitor IC50 determination (NANOLUC enzyme, furimazine). It is filed as biochemical. The note with it: IC50 (uM), 0.4 ng/ml NANOLUC enzyme, final furimazine 10 uM (at Km). The method, then: The following example provides the IC50 values for the compounds disclosed herein. See Table 5 NANOLUC® enzyme was diluted to 0.4 ng/ml in CO2 independent media+10% FBS to make the detection reagent. A 3× dilution series of each inhibitor was then made in the detection reagent. A “no inhibitor” control was also made for each sample. 50 ul of each inhibitor dilution was mixed with 50 ul of NanoGlo buffer containing 20 uM furimazine. (Final furimazine concentration is 10 uM which is at Km.), and luminescence measured. Each sample was normalized to the “no inhibitor” control. The […] values were then determined using GraphPad Prism (log [inhibitor] vs. normalized response).
Chain of NANOLUC® enzyme (Q9GV45 28-196 with tags or gaps with the stated changes limits assumed): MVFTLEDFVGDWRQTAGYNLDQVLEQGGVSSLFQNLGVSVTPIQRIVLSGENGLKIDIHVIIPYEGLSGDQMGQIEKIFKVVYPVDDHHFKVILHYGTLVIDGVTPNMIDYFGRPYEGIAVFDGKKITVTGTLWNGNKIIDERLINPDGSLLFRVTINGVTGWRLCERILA

One may read the IC50 as the concentration at which inhibition is half-maximal. Read a high IC50 as lower potency. `CCN(C(=O)Cn1c(C(=O)N[C@H]2CC[C@H](C(=O)NC3CCN(C(C)=O)CC3)CC2)cc2sccc21)c1cccc(C)c1` [JRW-0195, N-(trans-4-((1-acetylpiperidin-4-yl)carbamoyl)cyclohexyl)-4-(2-(ethyl(m-tolyl)amino)-2-oxoethyl)-4H-thieno[3,2-b]pyrrole-5-carboxamide] displayed an IC50 of 0.48 µM.
